Measurements taken from ChEMBL document CHEMBL6121066, “Structure-Activity Relationship Studies of DNA Methyltransferase 1 Monovalent Degraders” (J Med Chem, 2025).
Active and inactive are the calls of the source. No cut-off for these calls is given here.

Tests used:
MDA-MB-468 [1] = test: Effect on DNMT1 mRNA level in human MDA-MB-468 cells at 500 nM incubated for 24 hrs by RT-qPCR analysis; format: functional, cell-based
[2] = target: DNA (cytosine-5)-methyltransferase 1 (Homo sapiens, UniProt P26358); test: Inhibition of human DNMT1 (350 to 1600 residues) extracted from Escherichia coli BL21 (DE3)-codon plus-RIL cells in presence of SAM and hemimethylated DNA
[3] = target: Histone-lysine N-methyltransferase, H3 lysine-79 specific (Homo sapiens) (UniProt Q8TEK3); test: Inhibition of human DOT1L using oligo nucleosomes and SAM as substrate at 1 uM by radioisotope-based MT HotSpot assay relative to control
[4] = target: T1, Histone-arginine methyltransferase CARM1 (Homo sapiens) (UniProt Q86X55); test: Inhibition of human PRMT4 using histone H3 and SAM as substrate at 1 uM by radioisotope-based MT HotSpot assay relative to control
T1 sequence (whole entry): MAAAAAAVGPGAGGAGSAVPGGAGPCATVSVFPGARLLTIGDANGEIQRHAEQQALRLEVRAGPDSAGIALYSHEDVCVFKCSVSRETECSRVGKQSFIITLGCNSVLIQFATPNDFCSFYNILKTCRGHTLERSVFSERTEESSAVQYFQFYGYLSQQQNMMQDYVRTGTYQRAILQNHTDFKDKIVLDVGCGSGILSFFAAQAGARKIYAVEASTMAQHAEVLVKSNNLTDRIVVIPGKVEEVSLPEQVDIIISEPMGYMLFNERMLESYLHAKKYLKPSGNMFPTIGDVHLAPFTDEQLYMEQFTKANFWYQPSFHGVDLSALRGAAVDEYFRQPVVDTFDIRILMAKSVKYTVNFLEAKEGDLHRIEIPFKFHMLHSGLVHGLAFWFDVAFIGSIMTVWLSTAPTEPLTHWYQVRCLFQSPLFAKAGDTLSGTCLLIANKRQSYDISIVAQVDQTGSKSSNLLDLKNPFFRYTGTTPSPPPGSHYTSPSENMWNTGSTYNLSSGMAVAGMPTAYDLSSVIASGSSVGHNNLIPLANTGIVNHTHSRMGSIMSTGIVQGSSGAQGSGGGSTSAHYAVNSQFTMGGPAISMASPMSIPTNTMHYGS

[5] = target: T2, Histone-lysine N-methyltransferase NSD2 (Homo sapiens) (UniProt O96028); test: Inhibition of human NSD2 using nucleosomes and SAM as substrate at 1 uM by radioisotope-based MT HotSpot assay relative to control
T2 sequence (whole entry): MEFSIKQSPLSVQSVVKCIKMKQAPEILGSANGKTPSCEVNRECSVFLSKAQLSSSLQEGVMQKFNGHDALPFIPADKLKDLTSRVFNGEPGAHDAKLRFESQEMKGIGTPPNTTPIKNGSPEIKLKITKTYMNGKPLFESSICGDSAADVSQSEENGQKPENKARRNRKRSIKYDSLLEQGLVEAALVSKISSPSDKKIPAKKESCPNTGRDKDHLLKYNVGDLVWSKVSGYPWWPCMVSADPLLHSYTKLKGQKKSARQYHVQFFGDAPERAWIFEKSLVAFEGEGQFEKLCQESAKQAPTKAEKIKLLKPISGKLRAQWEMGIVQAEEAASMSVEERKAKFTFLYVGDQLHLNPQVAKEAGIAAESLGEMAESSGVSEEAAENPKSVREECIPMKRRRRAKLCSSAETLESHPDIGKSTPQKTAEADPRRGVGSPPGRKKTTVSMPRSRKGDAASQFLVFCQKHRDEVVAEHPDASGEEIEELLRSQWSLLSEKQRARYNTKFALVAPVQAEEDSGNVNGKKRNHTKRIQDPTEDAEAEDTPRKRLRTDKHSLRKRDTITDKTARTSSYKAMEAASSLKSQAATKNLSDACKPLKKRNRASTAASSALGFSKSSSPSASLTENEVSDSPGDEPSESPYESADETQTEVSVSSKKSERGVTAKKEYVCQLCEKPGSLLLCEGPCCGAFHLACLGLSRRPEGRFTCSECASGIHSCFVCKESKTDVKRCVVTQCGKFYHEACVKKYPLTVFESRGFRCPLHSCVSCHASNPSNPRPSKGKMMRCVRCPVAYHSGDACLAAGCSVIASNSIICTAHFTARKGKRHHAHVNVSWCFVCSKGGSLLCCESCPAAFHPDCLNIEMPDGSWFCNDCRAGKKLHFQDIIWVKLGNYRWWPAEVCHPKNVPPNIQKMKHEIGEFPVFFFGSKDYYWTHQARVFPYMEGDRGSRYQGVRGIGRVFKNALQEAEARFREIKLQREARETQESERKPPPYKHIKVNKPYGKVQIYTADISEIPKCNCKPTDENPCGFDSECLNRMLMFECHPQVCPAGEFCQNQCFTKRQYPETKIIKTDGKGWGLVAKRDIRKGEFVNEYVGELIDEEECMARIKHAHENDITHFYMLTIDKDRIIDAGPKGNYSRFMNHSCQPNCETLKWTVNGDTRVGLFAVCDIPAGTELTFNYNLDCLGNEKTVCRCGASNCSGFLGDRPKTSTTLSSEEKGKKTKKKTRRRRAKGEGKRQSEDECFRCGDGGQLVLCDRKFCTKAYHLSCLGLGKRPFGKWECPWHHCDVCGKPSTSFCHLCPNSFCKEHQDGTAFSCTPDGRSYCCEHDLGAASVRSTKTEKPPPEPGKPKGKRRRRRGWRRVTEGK

HCT-116 [6] = test: Induction of molecular glue effect mediated DNMT3B degradation in human HCT-116 cells assessed as reduction in DNMT3B protein level at 500 nM incubated for 24 hrs by Western blot analysis; format: cell-based
HCT-116 [7] = test: Induction of molecular glue effect mediated DNMT1 degradation in human HCT-116 cells assessed as reduction in DNMT1 protein level at 100 nM preincubated with MG132 for 2 hrs followed by compound addition and measured after 24 hrs by Western blot analysis; format: cell-based
NCI-H1299 = test: Induction of molecular glue effect mediated DNMT1 degradation in human NCI-H1299 cells assessed as reduction in DNMT1 protein level at 100 nM preincubated with MG132 for 2 hrs followed by compound addition and measured after 24 hrs by Western blot analysis; format: cell-based
HCT-116 [8] = test: Induction of molecular glue effect mediated DNMT1 degradation in human HCT-116 cells assessed as reduction in DNMT1 protein level at 100 nM preincubated with TAK-243 for 2 hrs followed by compound addition and measured after 24 hrs by Western blot analysis; format: cell-based
HCT-116 [9] = test: Induction of molecular glue effect mediated DNMT1 degradation in human HCT-116 cells assessed as reduction in DNMT1 protein level at 100 nM preincubated with MLN4924 for 2 hrs followed by compound addition and measured after 24 hrs by Western blot analysis; format: cell-based
MDA-MB-468 [10] = test: Induction of molecular glue effect mediated DNMT1 degradation in human MDA-MB-468 cells assessed as reduction in DNMT1 protein level at 100 nM preincubated with MLN4924 for 2 hrs followed by compound addition and measured after 24 hrs by Western blot analysis; format: cell-based

Sequence of DNA (cytosine-5)-methyltransferase 1 (P26358 whole entry, the tested form may be a part): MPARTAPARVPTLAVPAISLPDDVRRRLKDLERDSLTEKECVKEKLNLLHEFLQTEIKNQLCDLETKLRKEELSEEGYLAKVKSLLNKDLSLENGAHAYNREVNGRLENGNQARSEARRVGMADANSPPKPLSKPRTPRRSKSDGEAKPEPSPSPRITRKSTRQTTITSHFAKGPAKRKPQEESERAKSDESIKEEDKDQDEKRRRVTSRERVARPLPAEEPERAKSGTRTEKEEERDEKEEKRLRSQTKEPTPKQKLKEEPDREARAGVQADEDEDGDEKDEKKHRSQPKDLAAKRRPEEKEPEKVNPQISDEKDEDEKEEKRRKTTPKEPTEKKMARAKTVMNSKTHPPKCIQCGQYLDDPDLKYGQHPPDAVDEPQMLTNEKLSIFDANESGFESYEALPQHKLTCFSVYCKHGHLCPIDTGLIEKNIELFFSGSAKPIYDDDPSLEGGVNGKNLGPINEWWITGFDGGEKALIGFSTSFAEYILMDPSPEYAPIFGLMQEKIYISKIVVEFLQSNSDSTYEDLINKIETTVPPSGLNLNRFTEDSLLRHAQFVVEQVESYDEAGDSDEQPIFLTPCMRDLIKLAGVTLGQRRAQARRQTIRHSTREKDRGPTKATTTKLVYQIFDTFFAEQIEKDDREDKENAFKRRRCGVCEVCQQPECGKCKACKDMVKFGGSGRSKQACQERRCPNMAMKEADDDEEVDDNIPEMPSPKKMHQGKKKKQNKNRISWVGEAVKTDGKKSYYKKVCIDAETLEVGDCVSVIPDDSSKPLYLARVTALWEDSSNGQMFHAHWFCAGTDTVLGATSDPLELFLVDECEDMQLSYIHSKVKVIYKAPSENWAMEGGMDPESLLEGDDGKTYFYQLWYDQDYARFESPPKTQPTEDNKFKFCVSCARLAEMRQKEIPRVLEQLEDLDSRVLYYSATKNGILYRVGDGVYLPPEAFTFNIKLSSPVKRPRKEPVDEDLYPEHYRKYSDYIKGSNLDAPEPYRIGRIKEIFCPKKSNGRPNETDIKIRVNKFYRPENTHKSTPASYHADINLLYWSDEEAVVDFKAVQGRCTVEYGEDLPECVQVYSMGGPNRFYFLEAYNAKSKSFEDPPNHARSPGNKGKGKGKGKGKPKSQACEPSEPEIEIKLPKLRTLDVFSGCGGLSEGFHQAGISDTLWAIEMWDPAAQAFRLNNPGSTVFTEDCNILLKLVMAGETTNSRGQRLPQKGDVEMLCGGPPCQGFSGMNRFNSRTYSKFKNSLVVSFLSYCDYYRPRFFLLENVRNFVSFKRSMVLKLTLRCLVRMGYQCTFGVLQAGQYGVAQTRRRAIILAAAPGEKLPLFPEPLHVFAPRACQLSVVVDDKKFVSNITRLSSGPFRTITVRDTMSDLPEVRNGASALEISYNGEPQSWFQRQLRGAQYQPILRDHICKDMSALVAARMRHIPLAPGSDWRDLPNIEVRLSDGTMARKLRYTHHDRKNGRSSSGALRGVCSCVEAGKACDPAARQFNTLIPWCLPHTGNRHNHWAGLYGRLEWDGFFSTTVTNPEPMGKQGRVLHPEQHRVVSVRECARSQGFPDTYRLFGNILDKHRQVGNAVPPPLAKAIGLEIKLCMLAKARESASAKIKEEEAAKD
Sequence of Histone-lysine N-methyltransferase, H3 lysine-79 specific (Homo sapiens) (Q8TEK3 whole entry, looked up): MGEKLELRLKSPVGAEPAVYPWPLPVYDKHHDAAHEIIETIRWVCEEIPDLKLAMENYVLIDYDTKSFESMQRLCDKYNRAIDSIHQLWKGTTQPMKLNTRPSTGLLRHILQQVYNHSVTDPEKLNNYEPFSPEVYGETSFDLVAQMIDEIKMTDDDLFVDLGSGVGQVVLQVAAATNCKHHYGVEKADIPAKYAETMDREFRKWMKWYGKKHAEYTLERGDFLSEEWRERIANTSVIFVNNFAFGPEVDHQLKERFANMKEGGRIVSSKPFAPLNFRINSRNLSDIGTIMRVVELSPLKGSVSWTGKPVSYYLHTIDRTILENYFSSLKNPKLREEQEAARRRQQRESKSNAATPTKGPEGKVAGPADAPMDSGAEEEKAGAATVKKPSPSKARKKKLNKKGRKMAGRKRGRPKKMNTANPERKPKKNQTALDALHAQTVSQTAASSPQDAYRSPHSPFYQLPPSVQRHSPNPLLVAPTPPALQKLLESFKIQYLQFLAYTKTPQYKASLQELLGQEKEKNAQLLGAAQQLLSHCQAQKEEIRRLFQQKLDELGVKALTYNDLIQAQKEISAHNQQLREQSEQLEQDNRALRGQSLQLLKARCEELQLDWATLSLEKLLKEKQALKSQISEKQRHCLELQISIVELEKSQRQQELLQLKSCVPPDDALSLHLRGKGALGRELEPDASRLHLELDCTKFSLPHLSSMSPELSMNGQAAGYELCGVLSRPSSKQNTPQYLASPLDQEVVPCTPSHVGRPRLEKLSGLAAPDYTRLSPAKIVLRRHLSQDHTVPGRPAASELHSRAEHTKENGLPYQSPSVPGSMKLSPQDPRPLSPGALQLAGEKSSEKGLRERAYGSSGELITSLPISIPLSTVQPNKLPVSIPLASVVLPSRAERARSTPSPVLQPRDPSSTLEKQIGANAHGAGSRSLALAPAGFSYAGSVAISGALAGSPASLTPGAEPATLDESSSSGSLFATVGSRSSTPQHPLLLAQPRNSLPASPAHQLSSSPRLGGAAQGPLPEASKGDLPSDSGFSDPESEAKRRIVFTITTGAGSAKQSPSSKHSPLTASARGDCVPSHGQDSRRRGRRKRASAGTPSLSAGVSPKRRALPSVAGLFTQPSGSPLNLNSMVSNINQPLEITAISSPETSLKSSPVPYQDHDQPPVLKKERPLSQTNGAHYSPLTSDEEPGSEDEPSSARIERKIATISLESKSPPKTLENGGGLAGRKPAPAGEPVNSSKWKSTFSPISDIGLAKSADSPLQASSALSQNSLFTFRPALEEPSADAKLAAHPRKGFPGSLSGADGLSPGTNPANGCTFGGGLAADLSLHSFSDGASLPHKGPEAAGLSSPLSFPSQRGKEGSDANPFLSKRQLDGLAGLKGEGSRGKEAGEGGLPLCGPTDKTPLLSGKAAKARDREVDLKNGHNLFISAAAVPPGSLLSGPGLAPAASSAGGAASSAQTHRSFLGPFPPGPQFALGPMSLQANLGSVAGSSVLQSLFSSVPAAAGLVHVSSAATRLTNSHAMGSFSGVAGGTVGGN

IC50 [2]: 0.43 µM
inhibition [3]: < 20%
inhibition [4]: < 20%
inhibition [5]: < 20%
Structure (SMILES): CCc1c(C#N)c(SC(C(N)=O)c2ccccc2)nc(N(C)CC(=O)NC)c1C#N (stereo unspecified)
Activity (MDA-MB-468 [1]): inactive
Activity (HCT-116 [6]): inactive
Activity (HCT-116 [7]): inactive
Activity (NCI-H1299): inactive
Activity (HCT-116 [8]): inactive
Activity (HCT-116 [9]): Active
Activity (MDA-MB-468 [10]): Active
